According to PubChem BioAssay (NCI):
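Protocol summary: plate cells (96-well), add compound at 5 concentrations, incubate 48 h, interpolate endpoints linearly. GI50: concentration for 50% inhibition of growth. Definition used: TGI = concentration required for complete inhibition of growth.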

How the values were obtained:
Test in all cases: NCI tumour cell line growth inhibition, 48 h
TK-10 renal = test system: TK-10 renal
A498 renal = test system: A498 renal
MOLT-4 leukemia = test system: MOLT-4 leukemia
SNB-19 CNS = test system: SNB-19 CNS
SK-MEL-5 melanoma = test system: SK-MEL-5 melanoma
SK-MEL-28 melanoma = test system: SK-MEL-28 melanoma
HS 578T breast = test system: HS 578T breast
SK-OV-3 ovarian = test system: SK-OV-3 ovarian
HOP-92 NSCLC = test system: HOP-92 NSCLC
NCI-H23 lung = test system: NCI-H23 lung
T-47D breast = test system: T-47D breast
COLO 205 colon = test system: COLO 205 colon
SK-MEL-2 melanoma = test system: SK-MEL-2 melanoma
OVCAR-4 ovarian = test system: OVCAR-4 ovarian
U251 CNS = test system: U251 CNS
BT-549 breast = test system: BT-549 breast
LOX IMVI melanoma = test system: LOX IMVI melanoma
UO-31 renal = test system: UO-31 renal
HT29 colon = test system: HT29 colon
RXF 393 renal = test system: RXF 393 renal
A549 NSCLC = test system: A549 NSCLC
NCI-H460 lung = test system: NCI-H460 lung
CAKI-1 renal = test system: CAKI-1 renal
SF-295 CNS = test system: SF-295 CNS
HCC-2998 colon = test system: HCC-2998 colon
CCRF-CEM leukemia = test system: CCRF-CEM leukemia
OVCAR-3 ovarian = test system: OVCAR-3 ovarian
NCI/ADR-RES ovarian = test system: NCI/ADR-RES ovarian
HL-60(TB) leukemia = test system: HL-60(TB) leukemia
NCI-H226 lung = test system: NCI-H226 lung
IGROV1 ovarian = test system: IGROV1 ovarian
MCF7 breast = test system: MCF7 breast
OVCAR-8 ovarian = test system: OVCAR-8 ovarian
SNB-75 CNS = test system: SNB-75 CNS
SN12C renal = test system: SN12C renal
HCT-116 colon = test system: HCT-116 colon
KM12 colon = test system: KM12 colon
UACC-257 melanoma = test system: UACC-257 melanoma
ACHN renal = test system: ACHN renal
SF-539 CNS = test system: SF-539 CNS
M14 melanoma = test system: M14 melanoma
HOP-62 NSCLC = test system: HOP-62 NSCLC
HCT-15 colon = test system: HCT-15 colon
DU-145 prostate = test system: DU-145 prostate
786-0 renal = test system: 786-0 renal
SR leukemia = test system: SR leukemia
RPMI-8226 leukemia = test system: RPMI-8226 leukemia
EKVX NSCLC = test system: EKVX NSCLC
SW-620 colon = test system: SW-620 colon
SF-268 CNS = test system: SF-268 CNS
UACC-62 melanoma = test system: UACC-62 melanoma
MALME-3M melanoma = test system: MALME-3M melanoma
MDA-MB-435 = test system: MDA-MB-435
MDA-MB-231 breast = test system: MDA-MB-231 breast
OVCAR-5 ovarian = test system: OVCAR-5 ovarian

Question: Which results are given for `COc1cccc(C(=O)NNc2nc(Cl)nc(N3CCN(C(c4ccccc4)c4ccccc4)CC3)n2)c1`?
Answer: GI50 (TK-10 renal): 51 µM; TGI (TK-10 renal): > 100 µM; GI50 (A498 renal): 14.1 µM; TGI (A498 renal): 40.2 µM; GI50 (MOLT-4 leukemia): 2360 nM; TGI (MOLT-4 leukemia): 7.54 µM; GI50 (SNB-19 CNS): 1880 nM; TGI (SNB-19 CNS): 3.98 µM; GI50 (SK-MEL-5 melanoma): 15.9 µM; TGI (SK-MEL-5 melanoma): 29.7 µM; GI50 (SK-MEL-28 melanoma): 2210 nM; TGI (SK-MEL-28 melanoma): 5.38 µM; GI50 (HS 578T breast): 1950 nM; TGI (HS 578T breast): 4.9 µM; GI50 (SK-OV-3 ovarian): 13.2 µM; TGI (SK-OV-3 ovarian): 26 µM; GI50 (HOP-92 NSCLC): 1570 nM; TGI (HOP-92 NSCLC): 3.82 µM; GI50 (NCI-H23 lung): 2700 nM; TGI (NCI-H23 lung): 7.5 µM; GI50 (T-47D breast): > 100 µM; TGI (T-47D breast): > 100 µM; GI50 (COLO 205 colon): 3.67 µM; TGI (COLO 205 colon): 14.3 µM; GI50 (SK-MEL-2 melanoma): 2140 nM; TGI (SK-MEL-2 melanoma): 5.31 µM; GI50 (OVCAR-4 ovarian): 1730 nM; TGI (OVCAR-4 ovarian): 3.44 µM; GI50 (U251 CNS): 1780 nM; TGI (U251 CNS): 3.51 µM; GI50 (BT-549 breast): 1630 nM; TGI (BT-549 breast): 3.31 µM; GI50 (LOX IMVI melanoma): 1700 nM; TGI (LOX IMVI melanoma): 3.14 µM; GI50 (UO-31 renal): 3.14 µM; TGI (UO-31 renal): 22 µM; GI50 (HT29 colon): 2120 nM; TGI (HT29 colon): 4.8 µM; GI50 (RXF 393 renal): 2700 nM; TGI (RXF 393 renal): 8.28 µM; GI50 (A549 NSCLC): 22.1 µM; TGI (A549 NSCLC): 83.6 µM; GI50 (NCI-H460 lung): 3.26 µM; TGI (NCI-H460 lung): 12 µM; GI50 (CAKI-1 renal): 1870 nM; TGI (CAKI-1 renal): 4.31 µM; GI50 (SF-295 CNS): 16.8 µM; TGI (SF-295 CNS): 30.4 µM; GI50 (HCC-2998 colon): 1770 nM; TGI (HCC-2998 colon): 3.43 µM; GI50 (CCRF-CEM leukemia): 2230 nM; TGI (CCRF-CEM leukemia): 30.4 µM; GI50 (OVCAR-3 ovarian): 1720 nM; TGI (OVCAR-3 ovarian): 3.28 µM; GI50 (NCI/ADR-RES ovarian): 2180 nM; TGI (NCI/ADR-RES ovarian): 5.05 µM; GI50 (HL-60(TB) leukemia): 6.29 µM; TGI (HL-60(TB) leukemia): 43.9 µM; GI50 (NCI-H226 lung): 17 µM; TGI (NCI-H226 lung): 38 µM; GI50 (IGROV1 ovarian): 1630 nM; TGI (IGROV1 ovarian): 3.07 µM; GI50 (MCF7 breast): 82.2 µM; TGI (MCF7 breast): > 100 µM; GI50 (OVCAR-8 ovarian): 2020 nM; TGI (OVCAR-8 ovarian): 4.53 µM; GI50 (SNB-75 CNS): 1510 nM; TGI (SNB-75 CNS): 3.56 µM; GI50 (SN12C renal): 1800 nM; TGI (SN12C renal): 3.47 µM; GI50 (HCT-116 colon): 1770 nM; TGI (HCT-116 colon): 3.73 µM; GI50 (KM12 colon): > 100 µM; TGI (KM12 colon): > 100 µM; GI50 (UACC-257 melanoma): 3.06 µM; TGI (UACC-257 melanoma): 11.7 µM; GI50 (ACHN renal): 1760 nM; TGI (ACHN renal): 3.16 µM; GI50 (SF-539 CNS): 2080 nM; TGI (SF-539 CNS): 4.3 µM; GI50 (M14 melanoma): 1700 nM; TGI (M14 melanoma): 3.53 µM; GI50 (HOP-62 NSCLC): 8.71 µM; TGI (HOP-62 NSCLC): 23.5 µM; GI50 (HCT-15 colon): 1900 nM; TGI (HCT-15 colon): 3.73 µM; GI50 (DU-145 prostate): 4.3 µM; TGI (DU-145 prostate): 15.3 µM; GI50 (786-0 renal): 3.4 µM; TGI (786-0 renal): 13.1 µM; GI50 (SR leukemia): 852 nM; TGI (SR leukemia): 4.26 µM; GI50 (RPMI-8226 leukemia): > 100 µM; TGI (RPMI-8226 leukemia): > 100 µM; GI50 (EKVX NSCLC): 5.76 µM; TGI (EKVX NSCLC): 20 µM; GI50 (SW-620 colon): 1900 nM; TGI (SW-620 colon): 3.98 µM; GI50 (SF-268 CNS): 2070 nM; TGI (SF-268 CNS): 4.73 µM; GI50 (UACC-62 melanoma): 2300 nM; TGI (UACC-62 melanoma): 5.85 µM; GI50 (MALME-3M melanoma): 1700 nM; TGI (MALME-3M melanoma): 3.78 µM; GI50 (MDA-MB-435): 3.96 µM; TGI (MDA-MB-435): 14.2 µM; GI50 (MDA-MB-231 breast): 1880 nM; TGI (MDA-MB-231 breast): 3.85 µM; GI50 (OVCAR-5 ovarian): 16.3 µM; TGI (OVCAR-5 ovarian): 40 µM
